Measured values published in publication PMC10298626 (International Journal of Molecular Sciences, 2023).
Marks after values point to notes of the source that are not given here.

Experiments:
acetylcholinesterase = target: acetylcholinesterase; set-up: method as in PMID 8823504, PMID 7649881, PMID 9535168; conditions: read-out: IC50 against acetylcholinesterase; cited from earlier work
in vitro = format: cell-based; conditions: mouse, RAW264.7 cells, then LPS (500 ng/mL) 20 h, read-out: Cell viability, Average (%)
Protocol: To investigate the anti-inflammatory activity of coumarin derivatives, cell viability was analyzed by treating RAW264.7 cells with 23 types of coumarin derivatives at concentrations of 20, 40, and 80 μM for 2 h and with LPS for 20 h.
Mouse macrophage RAW264.7 cells were purchased from the Korea Cell Line Bank (Seoul, Republic of Korea) and cultured in Dulbecco’s Modified Eagle Medium (Corning, NY, USA) containing 10% fetal bovine serum and 1% penicillin/streptomycin at 37 °C and 5% CO2. The medium was changed every 2 days and subcultured when the cells grew > 80%.
EZ-Cytox cell viability assay kit (Dogen, Suwon, Republic of Korea) was used to measure cell viability according to the manufacturer’s instructions. RAW264.7 cells were seeded into a 96-well plate (1 × 10^5 cells/well) and treated with coumarin derivatives at concentrations of 20, 40, and 80 μM. After 2 h, the cells were treated with LPS (500 ng/mL) and cultured for 24 h in a 37 °C, 5% CO2 incubator. The culture supernatant was treated with 10% EZ-Cytox reagent, and a microplate reader was used to measure the absorbance at 450 nm.

[1] = test system: LPS-stimulated RAW264.7 cells; assay: NO production (Griess reagent) in LPS-stimulated RAW264.7 cells; format: cell-based, Mouse; conditions: then LPS (500 ng/mL) 20 h, LPS alone 25.9, control 3.1
Protocol: A high concentration of NO promotes the synthesis of inflammatory mediators, leading to an inflammatory response, and has been reported to be a cause of various immune diseases. Therefore, this study was conducted to investigate the effect of coumarin derivatives on the production of NO induced by LPS stimulation in RAW264.7 cells. The cells were treated with coumarin derivatives at concentrations of 20, 40, and 80 μM for 2 h. Then, the cells were treated with LPS. After 20 h, the culture supernatant was recovered, and the amount of NO was measured. […] The anti-inflammatory activity of these derivatives depended on the position of the substituted group rather than the electron density of the substituted group.
The Griess reagent was used to measure NO production. RAW264.7 cells were seeded into a 96-well plate and cultured for 24 h. The cells were treated with 20, 40, and 80 μM of coumarin derivatives, cultured for 2 h, and then cultured with LPS (500 ng/mL) for 20 h. The same amount of cell supernatant and Griess reagent were used for the reaction, and absorbance was measured at 540 nm.

[2] = test system: LPS-stimulated RAW264.7 cells; assay: as above; format: cell-based, Mouse; conditions: Dexamethasone (100 μM) treated for 2 h and LPS treated for 20 h; LPS alone 25.9, control 3.1

## COc1ccc(-c2cc3c(c(=O)o2)C[C@]2(O)[C@@]4(C)C(=O)C=CC(C)(C)[C@]4(O)CC[C@@]2(C)O3)cc1OC [Arisugacin A]
acetylcholinesterase
  IC50: 1 nM

## COc1ccc(-c2cc3c(c(=O)o2)C[C@]2(O)[C@@]4(C)C(=O)C=CC(C)(C)[C@]4(O)CC[C@@]2(C)O3)cc1 [Arisugacin B]
acetylcholinesterase
  IC50: 26 nM

## N#CC1=C(N)Oc2c(c(=O)oc3ccccc23)C1c1ccccc1 (stereo not drawn) [Coumarin derivative 23]
In vitro; 20 μM for 2 h
  viability at 22 h, 20 μM: 119%
In vitro; 40 μM for 2 h
  viability at 22 h, 40 μM: 118%
In vitro; 80 μM for 2 h
  viability at 22 h, 80 μM: 117%
[1]; 20 μM for 2 h
  NO production, Average: 30.77 µM
[1]; 40 μM for 2 h
  NO production, Average: 29.80 µM
[1]; 80 μM for 2 h
  NO production, Average: 27.39 µM

## C[C@@H]1C[C@H]2[C@@H]3CCC4=CC(=O)C=C[C@]4(C)[C@@]3(F)[C@@H](O)C[C@]2(C)[C@@]1(O)C(=O)CO [Dexamethasone]
[2]
  NO production, Average (μM): 6.5 ^# μM
